Laboratory results taken from patent publication EP2762573A1, “In vitro method for determining cholestatic properties of a compound” (priority 2013, dated 2014).

What was measured:
[1] = tested on: Bcl2l11; assay: Biomarkers validation by q-pcr in precision cut liver slices: Bcl2l11 expression
Procedure: (§1) 23-weeks old male C57BL/6 mice were obtained from Harlan (Horst, The Netherlands). Animals were kept for 1 week at a housing temperature of 22°C and at a relative humidity of 30-70%. The lighting cycle was 12-h light and 12-h dark. At the age of 24 weeks animals were sacrificed by an overdose of isoflurane. The treatment protocol was approved by the Ethical Committee for Animal Experiments at Wageningen University.
(§2) Immediately after the animals were killed the liver was perfused with PBS and placed in ice-cold Krebs-Henseleit buffer (KHB) (pH 7.4, supplemented with 11 mM glucose). Liver tissue was transported to the laboratory within approximately 30 min and cylindrical liver cores were produced using a surgical biopsy punch with diameter of 5 mm (KAI, SynErgo Europe, Romania). Liver cores were placed in a Krumdieck tissue slicer (Alabama Research and Development, Munford, AL) filled with ice-cold KHB aerated with carbogen and supplemented with 11 mM glucose. Precesion cut liver slices (PCLS) with a diameter of 5 mm, a thickness of 0.2 mm and a weight of approximately 10 mg were prepared. Immediately after preparation, slices were transferred into culture plates filled with pre-warmed (37 degrees C) Williams E medium (WEM). Three liver slices were pre-cultured in one well of the 6-well plate filled with 4 ml of WEM for one hour with continuous shaking (70 rpm). Incubations were performed in an oxygen controlled incubator (Galaxy 48 R New Brunswick, Nijmegen, the Netherlands) at 80% of oxygen; 5% CO2 and the remaining gas volume was filled up to […] with N2. After one hour of pre-incubation, media were removed and replaced with fresh media containing test compounds or appropriate solvents. After incubations, samples were snap-frozen in liquid nitrogen and stored in -80 °C for further analysis. Samples dedicated to histology were stored in 4 % formaldehyde at room temperature.
(§3) PCLS were incubated at the same conditions as described above. Slices were exposed for 24 and 48 hours to one concentration of the tested compounds or controls. Concentrations used in the exposure experiments were preselected in the dose selection experiments for each drug individually. […] For the necrotic compounds: 1000 uM acetaminophen, 5 µM paraquat and 1000 uM isoniazid. Liver slices obtained from five mice were used in five toxic compound or control exposure experiments performed at the same time. Dose selection experiments and exposure experiments were performed at different days. Therefore, ATP, LDH, and protein assays were performed again for the exposure experiments to confirm that the selected doses did also not affect slice viability in these experiments.
(§4) In further studies, expression of ten candidate biomarkers in PCLS was analyzed by q-pcr using the Biorad CFX96 TM Real-Time Detection System (Bio-Rad, Veenendaal, The Netherlands) with the following cycling conditions: 15 min 95°C followed by 40 cycles of 15s 95 °C and 1 min 60 °C. Reactions were performed in 10 µl and contained 20 ng cDNA, 1x TaqMan PCR Master Mix (Applied Biosystems, Foster City, CA), and depending on the analysed gene, 250 nM probe and 900 nM primer (for actin b) or 1xTaqMan gene expression assay (for the remaining genes) (Applied Biosystems, foster City, CA).

[2] = tested on: Parp16; assay: Biomarkers validation by q-pcr in precision cut liver slices: Parp16 expression
Procedure: as §1, §2, §3, §4

[3] = tested on: Mras; assay: Biomarkers validation by q-pcr in precision cut liver slices: Mras expression
Procedure: as §1, §2, §3, §4

[4] = tested on: Myo1e; assay: Biomarkers validation by q-pcr in precision cut liver slices: Myo1e expression
Procedure: as §1, §2, §3, §4

[5] = tested on: Nme6; assay: Biomarkers validation by q-pcr in precision cut liver slices: Nme6 expression
Procedure: as §1, §2, §3, §4

[6] = tested on: ABCG5; assay: Biomarkers validation by q-pcr in precision cut liver slices: ABCG5 expression
Procedure: as §1, §2, §3, §4

[7] = tested on: ABCG8; assay: Biomarkers validation by q-pcr in precision cut liver slices: ABCG8 expression
Procedure: as §1, §2, §3, §4

[8] = tested on: SERPINE1; assay: Biomarkers validation by q-pcr in precision cut liver slices: SERPINE1 expression
Procedure: as §1, §2, §3, §4

[9] = tested on: BAAT; assay: Biomarkers validation by q-pcr in precision cut liver slices: BAAT expression
Procedure: as §1, §2, §3, §4

[10] = tested on: KLF15; assay: Biomarkers validation by q-pcr in precision cut liver slices: KLF15 expression
Procedure: as §1, §2, §3, §4

[11] = tested on: PCLS; assay: Cytotoxicity analysis - dose selection experiments (LDH, ATP, protein assay); details: mouse PCLS; LDH, ATP, and protein assay; concentration then used in exposure experiments
Procedure: as §1, §2, §3

## C[n+]1ccc(-c2cc[n+](C)cc2)cc1 [PQ, paraquat]
[1]
  *fold change 1, gene expression level Bcl2111: 1,3
  *fold change 2, gene expression level Bcl2111: 1,1
  *fold change 3, gene expression level Bcl2111: 1,1
  *fold change 4, gene expression level Bcl2111: 1,2
  *fold change 5, gene expression level Bcl2111: 1,1
[2]
  *fold change 1, gene expression level Parp 16: 1,6
  *fold change 2, gene expression level Parp 16: 1,0
  *fold change 3, gene expression level Parp 16: 1,0
  *fold change 4, gene expression level Parp 16: 1,1
  *fold change 5, gene expression level Parp 16: 1,4
[3]
  *fold change 1, gene expression level Mras: 1,4
  *fold change 2, gene expression level Mras: 1,3
  *fold change 3, gene expression level Mras: 1,1
  *fold change 4, gene expression level Mras: 1,1
  *fold change 5, gene expression level Mras: 1,4
[4]
  *fold change 1, gene expression level Myo 1e: 1,1
  *fold change 2, gene expression level Myo 1e: 1,4
  *fold change 3, gene expression level Myo 1e: 1,1
  *fold change 4, gene expression level Myo 1e: 1,2
  *fold change 5, gene expression level Myo 1e: 1,2
[5]
  *fold change 1, gene expression level Nme6: 1,1
  *fold change 2, gene expression level Nme6: -1,2
  *fold change 3, gene expression level Nme6: 1,0
  *fold change 4, gene expression level Nme6: 1,1
  *fold change 5, gene expression level Nme6: 1,2
[6]
  *fold change 1, gene expression level ABCG5: 1,1
  *fold change 2, gene expression level ABCG5: 1,1
  *fold change 3, gene expression level ABCG5: 1,7
  *fold change 4, gene expression level ABCG5: -1,3
  *fold change 5, gene expression level ABCG5: -1,6
[7]
  *fold change 1, gene expression level ABCG8: 1,0
  *fold change 2, gene expression level ABCG8: -1,2
  *fold change 3, gene expression level ABCG8: 1,8
  *fold change 4, gene expression level ABCG8: -1,3
  *fold change 5, gene expression level ABCG8: -1,4
[8]
  *fold change 1, gene expression level SERPINE1: 2,7
  *fold change 2, gene expression level SERPINE1: 2,3
  *fold change 3, gene expression level SERPINE1: 2,7
  *fold change 4, gene expression level SERPINE1: 1,3
  *fold change 5, gene expression level SERPINE1: 1,9
[8]; Mann-Whitney test vs controls, 5 mice, mouse PCLS, same concentrations as fold change columns
  MW test, gene expression level SERPINE1: * (A p-value <0.05 was considered significant)
[9]
  *fold change 1, gene expression level BAAT: -1,2
  *fold change 2, gene expression level BAAT: -1,0
  *fold change 3, gene expression level BAAT: 1,7
  *fold change 4, gene expression level BAAT: 1,1
  *fold change 5, gene expression level BAAT: -1,4
[10]
  *fold change 1, gene expression level KLF15: 1,3
  *fold change 2, gene expression level KLF15: -1,0
  *fold change 3, gene expression level KLF15: 1,3
  *fold change 4, gene expression level KLF15: 1,1
  *fold change 5, gene expression level KLF15: -1,2
[11]
  highest concentration that did not cause significant increase of toxicity: 5 µM
